US20140065610A1, “METHOD FOR PREDICTING CLINICAL BENEFIT IN THE TREATMENT OF NEURODEVELOPMENTAL, NEUROLOGICAL OR NEUROPSYCHIATRIC DISORDERS” (priority 2011, published 2014)

Key:
Type in all cases: in vivo, human
[1] = system: adults with schizophrenia with predominantly negative symptoms; assay: Phase II GRI schizophrenia trial: change of PANSS negative symptom factor score from baseline
Method: FIG. 2: Change of PANSS negative symptom factor score from baseline in all patients (FIG. 2(a)) and in CFHR1-low patients (FIG. 2(b)) and CFHR1-high patients (FIG. 2(c)) using natural cutoff for CFHR1. Patients with serum concentration ≦28 ug/ml were classified as CFHR1-low and patients with serum concentration >28 ug/ml were classified as CFHR1-high. Estimates of expected response and standard error bars from MMRM analysis. Dash-dot line and circle Placebo; solid line and squares 10 mg GRI; solid line and upward-pointing triangles 30 mg GRI; dashed line and diamonds 60 mg GRI.
(§1) A Phase II study was performed in adults with schizophrenia with predominantly negative symptoms. The individuals were clinically stable and on stable treatment with second generation antipsychotics. The study was conducted at multiple sites in Brazil, France, Germany, Hungary, Japan, Mexico, Poland, Russia, and the US according to ICH Guidelines for Good Clinical Practice (ClinicalTrials.gov Identifier: NCT00616798). The study protocol was approved by the health authorities of each country and the respective ethic committees of each site. All 323 patients had provided written consent to participate in the study and 224 patients had consented to the collection and use of serum samples for exploratory biomarker analysis. After a screening and a 4-week run-in period, patients were randomized to double-blind adjunctive treatment with placebo, 10 mg, 30 mg, or 60 mg of GRI given once a day for a duration of 8 weeks, followed by 4 week follow-up period. Similar percentages of patients in the four treatment arms completed the study.
(§2) Patients were assessed at screening, week −2, baseline, weeks 1, 2, 4, 6, 8, 10 and 12. Assessments included the PANSS, Clinical Global Impression—Severity of Illness (CGI-S) and Clinical Global Impression-Global Improvement (CGI-I) for overall psychopathology 56, CGI-S and CGI-I of Negative Symptoms (CGI-S-N, CGI-I-N) for assessment of negative symptoms only 57, and standard examinations of extrapyramidal symptoms (BAS58, SAS59, AIMS60). The primary efficacy variable assessing effects on negative symptoms was the change from baseline in the PANSS negative symptom factor score 64. Secondary efficacy variables were i) proportion of patients showing a clinical response in negative symptom defined as a 20% change from baseline in the PANSS negative symptom factor score and ii) CGI-I-N. Additional analyses included change in PANSS total score, remaining PANSS factor scores 64 CGI-S and CGI-I.
Results for the overall patient cohort are shown in the top panel, for the CFHR1-low patients in the middle panel and for the CFHR1-high patients in the lower panel. […]

[2] = system: adults with schizophrenia with predominantly negative symptoms; assay: Phase II GRI schizophrenia trial: PANSS negative symptom factor score responder rate; conditions: after 8 weeks
Method: FIG. 3: Response rates of dichotomized PANSS negative symptom factor score (response defined as ≧20% drop from baseline) at week 8. Shaded background bars are response rates in overall per protocol population. Solid grey bars are response rates in CFHR1 stratified subpopulations using natural cut-off for CFHR1.
as §1, §2
For the 10 mg arm the response rate in the CFHR1-high group was 88% compared to 69% in the non-stratified group, and for the 30 mg arm the response rate in the CFHR1-high group was 78% compared to 66% in the non-stratified group.

[3] = system: adults with schizophrenia with predominantly negative symptoms; assay: Phase II GRI schizophrenia trial: CGI-I negative symptoms responder rate
Description: FIG. 4: Response rates of dichotomized CGI-I negative symptoms rating score (response defined as “much improved” or “very much improved”) at week 8. Shaded background bars are response rates in overall per protocol population. Solid grey bars are response rates in CFHR1 stratified subpopulations using natural cut-off for CFHR1.
FIG. 6: Response rates of dichotomized CGI-I negative symptoms rating score (response defined as “much improved” or “very much improved”) at week 8. Shaded background bars are response rates in overall per protocol population. Solid grey bars are response rates in CFHR1 stratified subpopulations using CFHR1/CFH ratio, with L (low) corresponding to CFHR1/CFH ratio below 0.01, M (medium) corresponding to CFHR1/CFH ratio above 0.01 and below 0.08 and with H (high) corresponding to CFHR1/CFH ratio above 0.08.
FIG. 9: Response rates of dichotomized CGI-I negative symptoms rating score (response defined as “much improved” or “very much improved”) at week 8. Shaded background bars are response rates in overall per protocol population from those who had consented for DNA sample. Solid grey bars are response rates in CFHR1 stratified subpopulations using genetic status of CFHR1 allele.
as §1, §2
As a secondary endpoint in the clinical trial the Clinical Global Impression (CGI) improvement of negative symptoms between baseline and week 8 evaluation was used. This outcome measure was treated as a binary variable. […] The analysis was performed on the combined placebo, 10 mg and 30 mg biomarker population using the per protocol (PP) population. Explanatory variables for this analysis are the baseline measurements of all measured proteins, the treatment (placebo or pooled 10 mg/30 mg treatment) and the treatment-protein interaction. A logistic regression model was used as predictor.
For the 10 mg arm the response rate in the CFHR1-high group was 69% compared to 39% in the non-stratified group, and for the 30 mg arm the response rate in the CFHR1-high group was 67% compared to 45% in the non-stratified group. […]

[4] = 10 mg arm, non-stratified group
[5] = 30 mg arm, non-stratified group

## C[C@H](Oc1ccc(S(C)(=O)=O)cc1C(=O)N1CCN(c2ncc(C(F)(F)F)cc2F)CC1)C(F)(F)F [GRI, [4-(3-fluoro-5-trifluoromethyl-pyridin-2-yl)-piperazin-1-yl]-[5-methanesulfonyl-2-((S)-2,2,2-trifluoro-1-methyl-ethoxy)-phenyl]-methanone]
[1]; 10 mg arm, CFHR1-high group (serum CFHR1 >28 ug/ml), 8 weeks, vs placebo
  effect size, change in PANSS negative symptom factor score from baseline: −1.01
[1]; [4]
  effect size, change in PANSS negative symptom factor score from baseline: −0.42
[1]; 30 mg arm, CFHR1-high group (serum CFHR1 >28 ug/ml)
  effect size, change in PANSS negative symptom factor score from baseline: −0.76
[1]; [5]
  effect size, change in PANSS negative symptom factor score from baseline: −0.47
[2]; 10 mg arm, CFHR1-high group
  response rate, PANSS negative symptom factor score (at least 20% decrease from baseline): 88%
[2]; [4]
  response rate, PANSS negative symptom factor score (at least 20% decrease from baseline): 69%
[2]; 30 mg arm, CFHR1-high group
  response rate, PANSS negative symptom factor score (at least 20% decrease from baseline): 78%
[2]; [5]
  response rate, PANSS negative symptom factor score (at least 20% decrease from baseline): 66%
[3]; 10 mg arm, CFHR1+/+ group (genetic status)
  response rate, CGI of negative symptoms: 57%
[3]; 10 mg arm, CFHR1-high group (natural cut-off 28 ug/ml), week 8
  response rate, CGI of negative symptoms: 69%
[3]; 10 mg arm, H subgroup (CFHR1/CFH ratio above 0.08)
  response rate, CGI of negative symptoms: 69%
[3]; 10 mg arm, L group (CFHR1/CFH ratio below 0.01), small sample size
  response rate, CGI of negative symptoms: 0%
[3]; 10 mg arm, M subgroup (CFHR1/CFH ratio medium)
  response rate, CGI of negative symptoms: 19%
[3]; 10 mg arm, non-stratified group of patients who consented for DNA sample
  response rate, CGI of negative symptoms: 39%
[3]; 10 mg arm, non-stratified serum subgroup, week 8
  response rate, CGI of negative symptoms: 39%
[3]; 30 mg arm, CFHR1+/+ group (genetic status)
  response rate, CGI of negative symptoms: 67%
[3]; 30 mg arm, CFHR1-high group (natural cut-off 28 ug/ml), week 8
  response rate, CGI of negative symptoms: 67%
[3]; 30 mg arm, H subgroup (CFHR1/CFH ratio above 0.08)
  response rate, CGI of negative symptoms: 67%
[3]; 30 mg arm, L group (CFHR1/CFH ratio below 0.01), small sample size
  response rate, CGI of negative symptoms: 0%
[3]; 30 mg arm, M subgroup (CFHR1/CFH ratio medium)
  response rate, CGI of negative symptoms: 28%
[3]; 30 mg arm, non-stratified group of patients who consented for DNA sample
  response rate, CGI of negative symptoms: 46%
[3]; 30 mg arm, non-stratified serum subgroup, week 8
  response rate, CGI of negative symptoms: 45%
[3]; 60 mg arm, H subgroup (CFHR1/CFH ratio above 0.08)
  response rate, CGI of negative symptoms: 33%
[3]; 60 mg arm, L group (CFHR1/CFH ratio below 0.01), small sample size
  response rate, CGI of negative symptoms: 100%
[3]; 60 mg arm, M subgroup (CFHR1/CFH ratio medium)
  response rate, CGI of negative symptoms: 25%
[3]; 60 mg arm, non-stratified serum subgroup, week 8
  response rate, CGI of negative symptoms: 34%
